Source: a compilation of properties of binary mixtures (doi:10.1016/j.molliq.2014.05.027)

Test: xn = mol fraction of the nth substance listed
Settings: 101 kPa

SMILES | viscosity (293.15 K, x1 = 1) [mPa·s] | viscosity (298.15 K, x1 = 1) [mPa·s] | viscosity (303.15 K, x1 = 1) [mPa·s] | viscosity (313.15 K, x1 = 1) [mPa·s] | viscosity (293.15 K, x2 = 0) [mPa·s] | electrical conductivity (298.15 K, x1 = 0.002) [S/m] | electrical conductivity (298.15 K, x1 = 0.0071) [S/m] | electrical conductivity (298.15 K, x1 = 0.01) [S/m] | electrical conductivity (298.15 K, x2 = 0) [S/m] | viscosity (298.15 K, x2 = 0) [mPa·s] | electrical conductivity (298.15 K, x2 = 0.1092) [S/m] | electrical conductivity (298.15 K, x2 = 0.2563) [S/m] | electrical conductivity (298.15 K, x2 = 0.5026) [S/m] | electrical conductivity (298.15 K, x2 = 0.6515) [S/m] | electrical conductivity (298.15 K, x2 = 0.8065) [S/m] | electrical conductivity (298.15 K, x2 = 0.8514) [S/m] | electrical conductivity (298.15 K, x2 = 0.9001) [S/m] | electrical conductivity (298.15 K, x2 = 0.9252) [S/m] | viscosity (303.15 K, x2 = 0.7993) [mPa·s] | viscosity (308.15 K, x2 = 0) [mPa·s]
O + CC(=O)[O-].Cn1cc[nH+]c1 | 1.002 | 0.89 | 0.797 | 0.651 |  |  |  |  |  |  |  |  |  |  |  |  |  |  |  | 
CC(=O)[O-].Cn1cc[nH+]c1 + O |  |  |  |  | 8.2 | 0.522 | 1.51 | 1.92 | 0.371 | 6.93 | 0.433 | 0.553 | 0.858 | 1.21 | 2 | 2.52 | 3.27 | 3.73 | 5.76 | 5.07
